Laboratory results from patent US12077503B2, “Substituted cyclic amides and their use as herbicides” (FMC CORPORATION, priority 2015, dated 2024).
Like-named read-outs stand apart in the source and are kept apart here.

Tests used:
Format in all cases: in vivo
[1] = test system: pigweed (Amaranthus retroflexus); assay: Test A preemergence; details: Amaranthus retroflexus, pre-emergence, 240 h, read-out: Plant response rating, Pigweed; for pest or weed control at 125 g/ha: 125 g ai/ha, visual rating after approx. 10 d, 0 to 100 scale where 0 is no effect and 100 is complete control; for pest or weed control at 31 g/ha: Preemergence, 31 g ai/ha, 0 to 100 scale (0 no effect, 100 complete control)
[2] = test system: giant foxtail (Setaria faberii); assay: Test A preemergence; details: Setaria faberi, pre-emergence, 240 h, read-out: Plant response rating, Foxtail, Giant; for pest or weed control at 125 g/ha: 125 g ai/ha, visual rating after approx. 10 d, 0 to 100 scale where 0 is no effect and 100 is complete control; for pest or weed control at 31 g/ha: Preemergence, 31 g ai/ha, 0 to 100 scale (0 no effect, 100 complete control)
In short: (§1)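 In a loam soil and sand blend, planted seeds got a preemergence directed soil spray, and young plants at the one- to two-leaf stage, 2–10 cm high, got a postemergence application; ~10 d greenhouse hold; injury rated visually, 0 = none, 100 = complete control.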

Kochia (Kochia scoparia) [3] = assay: Test A preemergence; details: Bassia scoparia, pre-emergence, 240 h, read-out: Plant response rating, Kochia; for pest or weed control at 125 g/ha: 125 g ai/ha, visual rating after approx. 10 d, 0 to 100 scale where 0 is no effect and 100 is complete control; for pest or weed control at 31 g/ha: Preemergence, 31 g ai/ha, 0 to 100 scale (0 no effect, 100 complete control)
In short: as §1

[4] = test system: ragweed (common ragweed, Ambrosia elatior); assay: Test A preemergence; details: Ambrosia artemisiifolia, pre-emergence, 240 h, read-out: Plant response rating, Ragweed; for pest or weed control at 125 g/ha: 125 g ai/ha, visual rating after approx. 10 d, 0 to 100 scale where 0 is no effect and 100 is complete control; for pest or weed control at 31 g/ha: Preemergence, 31 g ai/ha, 0 to 100 scale (0 no effect, 100 complete control)
In short: as §1

[5] = test system: barnyardgrass (Echinochloa crus-galli); assay: Test A preemergence; details: Echinochloa crus-galli, pre-emergence, 240 h, read-out: Plant response rating, Barnyardgrass; for pest or weed control at 125 g/ha: 125 g ai/ha, visual rating after approx. 10 d, 0 to 100 scale where 0 is no effect and 100 is complete control; for pest or weed control at 31 g/ha: Preemergence, 31 g ai/ha, 0 to 100 scale (0 no effect, 100 complete control)
In short: as §1

[6] = test system: ryegrass, Italian (Italian ryegrass, Lolium multiflorum); assay: Test A preemergence; details: Lolium multiflorum, pre-emergence, 240 h, read-out: Plant response rating, Ryegrass, Italian; for pest or weed control at 125 g/ha: 125 g ai/ha, visual rating after approx. 10 d, 0 to 100 scale where 0 is no effect and 100 is complete control; for pest or weed control at 31 g/ha: Preemergence, 31 g ai/ha, 0 to 100 scale (0 no effect, 100 complete control)
In short: as §1

corn (Zea mays) = assay: Test A postemergence; details: Zea mays, post-emergence, 240 h; for plant injury at 125 g/ha: visual injury rating after approximately 10 d, read-out: Corn plant response rating (0 to 100 scale, 0 no effect, 100 complete control); for Corn plant response rating (crop injury, 0 = no effect, 100 = complete kill) at 31 g/ha: Postemergence, 31 g ai/ha, visual injury after approx. 10 d, 0 to 100 scale, 100 complete control
In short: as §1

[7] = test system: pigweed (Amaranthus retroflexus); assay: Test A postemergence; details: Amaranthus retroflexus, post-emergence, 240 h; for pest or weed control at 125 g/ha: 125 g ai/ha, postemergence; for pest or weed control at 31 g/ha: Postemergence, 31 g ai/ha, visual injury after approx. 10 d, 0 to 100 scale, 0 no effect, 100 complete control
In short: as §1

Kochia (Kochia scoparia) [8] = assay: Test A postemergence; details: Bassia scoparia, post-emergence, 240 h; for pest or weed control at 125 g/ha: 125 g ai/ha, postemergence; for pest or weed control at 31 g/ha: Postemergence, 31 g ai/ha, visual injury after approx. 10 d, 0 to 100 scale, 0 no effect, 100 complete control
In short: as §1

[9] = test system: Galium (catchweed bedstraw, Galium aparine); assay: Test A postemergence; details: Galium, post-emergence, 240 h; for pest or weed control at 125 g/ha: 125 g ai/ha, postemergence; for pest or weed control at 31 g/ha: Postemergence, 31 g ai/ha, visual injury after approx. 10 d, 0 to 100 scale, 0 no effect, 100 complete control
In short: as §1

rice (Oryra sativa) = assay: Test B flooded paddy test; details: Oryza sativa, Flood, 250 g ai/ha; scale of 0 to 100 where 0 is no effect and 100 is complete control; read-out: Rice plant response rating
In short: (§2)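 Flooding to 3 cm over soil accompanied treatment, which consisted of adding compound to the standing water around 2-leaf plants; depth was then maintained. Visual assessment versus controls followed at 13 to 15 d (scale 0–100, 0 meaning no effect).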

[10] = test system: sedge, umbrella (small-flower umbrella sedge, Cyperus difformis); assay: Test B flooded paddy test; details: Cyperus difformis, Flood, 250 g ai/ha; scale of 0 to 100 where 0 is no effect and 100 is complete control; read-out: Sedge, Umbrella plant response rating
In short: as §2

[11] = test system: barnyardgrass (Echinochloa crus-galli); assay: Test B flooded paddy test; details: Echinochloa crus-galli, Flood, 250 g ai/ha; scale of 0 to 100 where 0 is no effect and 100 is complete control; read-out: Barnyardgrass plant response rating
In short: as §2

[12] = test system: ducksalad (Heteranthera limosa); assay: Test B flooded paddy test; details: Heteranthera limosa, Flood, 250 g ai/ha; scale of 0 to 100 where 0 is no effect and 100 is complete control; read-out: Ducksalad plant response rating
In short: as §2

[13] = visual injury rating after approximately 10 d, read-out: Pigweed plant response rating (0 to 100 scale, 0 no effect, 100 complete control)
[14] = read-out: Plant response rating, Pigweed
[15] = visual injury rating after approximately 10 d, read-out: Kochia plant response rating (0 to 100 scale, 0 no effect, 100 complete control)
[16] = read-out: Plant response rating, Kochia
[17] = visual injury rating after approximately 10 d, read-out: Galium plant response rating (0 to 100 scale, 0 no effect, 100 complete control)
[18] = read-out: Plant response rating, Galium
[19] = 500 g ai/ha, preemergence, 0 to 100 scale, 0 = no effect, 100 = complete control

CN1CC[C@H](c2ccc3c(c2)OC(F)(F)O3)[C@@H](C(=O)Nc2ccccc2C(F)(F)F)C1=O [Compound 811]
pest or weed control at 125 g/ha ([1]; preemergence): 0% | pest or weed control at 31 g/ha [1]: 0% | pest or weed control at 125 g/ha ([2]; preemergence): 40% | pest or weed control at 31 g/ha [2]: 0% | pest or weed control at 125 g/ha (Kochia (Kochia scoparia) [3]; preemergence): 0% | pest or weed control at 31 g/ha (Kochia (Kochia scoparia) [3]): 0% | pest or weed control at 125 g/ha ([4]; preemergence): 0% | pest or weed control at 31 g/ha [4]: 0% | pest or weed control at 125 g/ha ([5]; preemergence): 40% | pest or weed control at 31 g/ha [5]: 0% | pest or weed control at 125 g/ha ([6]; preemergence): 0% | pest or weed control at 31 g/ha [6]: 0% | plant injury at 125 g/ha (corn (Zea mays); 125 g ai/ha, postemergence): 0% | Corn plant response rating (crop injury, 0 = no effect, 100 = complete kill) at 31 g/ha (corn (Zea mays)): 0% | pest or weed control at 125 g/ha [7, 13]: 0% | pest or weed control at 31 g/ha [7, 14]: 0% | pest or weed control at 125 g/ha (Kochia (Kochia scoparia) [8]; [15]): 0% | pest or weed control at 31 g/ha (Kochia (Kochia scoparia) [8]; [16]): 0% | pest or weed control at 125 g/ha [9, 17]: 0% | pest or weed control at 31 g/ha [9, 18]: 0% | pest or weed control at 250 g/ha (rice (Oryra sativa)): 0% | pest or weed control at 250 g/ha [10]: 40% | pest or weed control at 250 g/ha [11]: 20% | pest or weed control at 250 g/ha [12]: 40%

O=C1NC[C@H](c2csc3ccccc23)[C@H]1C(=O)Nc1ccccc1F [Compound 750]
pest or weed control at 125 g/ha ([1]; preemergence): 0% | pest or weed control at 500 g/ha [1, 19]: 0% | pest or weed control at 125 g/ha ([2]; preemergence): 50% | pest or weed control at 500 g/ha [2, 19]: 90% | pest or weed control at 125 g/ha (Kochia (Kochia scoparia) [3]; preemergence): 0% | pest or weed control at 500 g/ha (Kochia (Kochia scoparia) [3]; [19]): 0% | pest or weed control at 125 g/ha ([4]; preemergence): 0% | pest or weed control at 500 g/ha [4, 19]: 0% | pest or weed control at 125 g/ha ([5]; preemergence): 80% | pest or weed control at 500 g/ha [5, 19]: 90% | pest or weed control at 125 g/ha ([6]; preemergence): 0% | pest or weed control at 500 g/ha [6, 19]: 20% | Corn plant response rating (crop injury, 0 = no effect, 100 = complete kill) at 125 g/ha (corn (Zea mays); 125 g ai/ha, postemergence, visual injury after approximately 10 d, 0 to 100 scale (0 no effect, 100 complete control)): 0% | pest or weed control at 125 g/ha ([7]; visual injury after approximately 10 d, 0 to 100 scale (0 no effect, 100 complete control), read-out: Plant response rating, Pigweed): 0% | pest or weed control at 125 g/ha (Kochia (Kochia scoparia) [8]; visual injury after approximately 10 d, 0 to 100 scale (0 no effect, 100 complete control), read-out: Plant response rating, Kochia): 0% | pest or weed control at 125 g/ha ([9]; visual injury after approximately 10 d, 0 to 100 scale (0 no effect, 100 complete control), read-out: Plant response rating, Galium): 0% | pest or weed control at 250 g/ha (rice (Oryra sativa)): 0% | pest or weed control at 250 g/ha [10]: 0% | pest or weed control at 250 g/ha [11]: 0% | pest or weed control at 250 g/ha [12]: 90%

CSc1ccccc1NC(=O)[C@H]1C(=O)N(C)CC[C@@H]1c1cccc(OC(F)(F)F)c1 [Compound 809]
pest or weed control at 125 g/ha ([1]; preemergence): 0% | pest or weed control at 31 g/ha [1]: 0% | pest or weed control at 125 g/ha ([2]; preemergence): 20% | pest or weed control at 31 g/ha [2]: 0% | pest or weed control at 125 g/ha (Kochia (Kochia scoparia) [3]; preemergence): 0% | pest or weed control at 31 g/ha (Kochia (Kochia scoparia) [3]): 0% | pest or weed control at 125 g/ha ([4]; preemergence): 0% | pest or weed control at 31 g/ha [4]: 0% | pest or weed control at 125 g/ha ([5]; preemergence): 90% | pest or weed control at 31 g/ha [5]: 90% | pest or weed control at 125 g/ha ([6]; preemergence): 0% | pest or weed control at 31 g/ha [6]: 0% | plant injury at 125 g/ha (corn (Zea mays); 125 g ai/ha, postemergence): 0% | Corn plant response rating (crop injury, 0 = no effect, 100 = complete kill) at 31 g/ha (corn (Zea mays)): 0% | pest or weed control at 125 g/ha [7, 13]: 0% | pest or weed control at 31 g/ha [7, 14]: 0% | pest or weed control at 125 g/ha (Kochia (Kochia scoparia) [8]; [15]): 0% | pest or weed control at 31 g/ha (Kochia (Kochia scoparia) [8]; [16]): 0% | pest or weed control at 125 g/ha [9, 17]: 0% | pest or weed control at 31 g/ha [9, 18]: 0% | pest or weed control at 250 g/ha (rice (Oryra sativa)): 0% | pest or weed control at 250 g/ha [10]: 0% | pest or weed control at 250 g/ha [11]: 0% | pest or weed control at 250 g/ha [12]: 0%
